Source: paper PMC3581588, “Foam Cell Specific LXRα Ligand” (PLoS ONE, 2013)
pEC50: −log10 of the molar value. Where two headings read alike, the source gives them in different places.

Legend:
[1] = target: T1, LXRα ligand binding domain (Homo sapiens, UniProt Q13133); assay: dual luciferase reporter gene assay, LXRα-LBD/GAL4-DBD in HEK-293 cells; type: cell-based
T1 construct: expressed in transfected cells; host or cells: HEK-293
T1 sequence (Q13133 164-447): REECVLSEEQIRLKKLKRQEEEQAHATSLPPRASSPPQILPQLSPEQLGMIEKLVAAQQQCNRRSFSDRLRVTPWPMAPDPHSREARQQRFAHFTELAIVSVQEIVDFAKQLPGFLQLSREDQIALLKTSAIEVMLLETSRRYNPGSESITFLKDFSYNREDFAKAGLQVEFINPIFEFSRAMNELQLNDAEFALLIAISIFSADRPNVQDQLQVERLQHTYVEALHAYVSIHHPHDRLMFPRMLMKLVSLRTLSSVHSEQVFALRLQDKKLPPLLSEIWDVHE
Procedure: (§1) The ligand binding domain (LBD) of LXRα (amino acids 164 to 447) or LXRβ (amino acids 154 to 461) was cloned into pBIND [Renilla/Amp] vector (Promega). Selection and amplification were performed in E. coli cells. Purification of the plasmids was performed with a plasmid purification kit (Qiagen). For transfection HEK-293 cells were plated in 96-well plates (TPP) at a density of 3.5×10^4 cells/well for 24 h. To investigate the ligand binding on LXRα ligand binding domain, 0.04 ng of renilla luciferase coding plasmide pGL4.75 (Promega), 0.04 ng of LXRα-LBD/GAL4-DBD plasmide and 80 ng of firefly luciferase coding plasmide pGL4.31 (Promega) were used in a total volume of 200 µL for each well. For LXRβ binding assay 40 ng of LXRβ-LBD/GAL4-DBD plasmide were applied in each transfection mix. Transfection was carried out for 4 h with Lipofectamine 2000 Transfection Reagent (Invitrogen) in Opti-MEM medium (Invitrogen). Ligand treatment was performed at different concentrations for 24 h. For lysis and detection dual-luciferase reporter gene assay system (Promega) and POLARstar Omega (BMG LABTECH) were used.

[2] = target: T2, LXRβ ligand binding domain (Homo sapiens, UniProt P55055); assay: dual luciferase reporter gene assay, LXRβ-LBD/GAL4-DBD in HEK-293 cells; type: cell-based
T2 construct: expressed in transfected cells; host or cells: HEK-293
T2 sequence (P55055 154-460 limits assumed): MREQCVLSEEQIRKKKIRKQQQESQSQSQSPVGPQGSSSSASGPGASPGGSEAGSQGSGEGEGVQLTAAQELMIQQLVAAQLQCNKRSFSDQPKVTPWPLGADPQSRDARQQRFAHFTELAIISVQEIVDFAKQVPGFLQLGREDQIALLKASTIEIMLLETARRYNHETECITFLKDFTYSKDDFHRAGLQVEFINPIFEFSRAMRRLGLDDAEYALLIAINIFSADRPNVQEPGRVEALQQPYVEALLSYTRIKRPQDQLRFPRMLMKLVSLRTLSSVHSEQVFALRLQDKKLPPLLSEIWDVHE
Procedure: as §1

THP1-derived foam cells [3] = assay: cholesterol and triglyceride content in foam cells; type: cell-based, human; settings: 10 µM, 48 h, vs. DMSO
Procedure: (§2) We used the human THP1 cell line, which is widely applied as a macrophage and foam cell model with similar properties as primary cells. […] For generating macrophages differentiation was induced by 10^−8 M Phorbol 12-myristate 13-acetate (PMA) (Sigma-Aldrich) for 48 h. Ligand treatment of macrophages was performed for further 24 h. To induce foam cell formation macrophages were treated for additional 48 h with 100 µg/mL modified human oxidized low density lipoprotein (oxLDL) obtained from Source BioScience (RP-048). Ligand treatment was performed simultaneously with foam cell formation. Cholesterol loading and treatment was controlled with Oil Red O staining (Alfa Aeser). To investigate ligand induced effects on cell proliferation of THP-1 macrophages CellTiter-Glo Luminescent Cell Viability Assay (Promega) was utilized.
(§3) THP-1 monocytes were plated out into 24-well plates (Nunc) at a density of 2×10^5 cells/well. After differentiation and treatment cells were lysed with 100 µL lysis buffer (PBS, 0.25 M NaCl, 1% Triton X-100). Total and free cholesterol were determined using the colorimetric enzymatic Amplex Red Cholesterol Assay Kit (Invitrogen). Triglycerides were quantified by Triglyceride Assay Kit (BioVision). For normalisation protein content was determined with Pierce 660 nm Protein Assay Reagent (Thermo Scientific).

THP-1 macrophages [4] = assay: gene expression of LXRα target genes (qPCR) in THP-1 macrophages; type: cell-based, human; settings: for expression of LXRα target genes (LXRα, SREBF1, ABCA1, APOE): 10 µM, 24 h
Procedure: as §2
(§4) Total RNA isolation and purification was performed by using the RNeasy Mini Kit (QIAGEN) and RNase-Free DNase Set (QIAGEN). cDNA was generated by reverse transcription using the High Capacity cDNA Reverse Transcription Kit (Life Technologies). Gene expression was quantified using the SYBR Green PCR Master Mix (Life Technologies) and ABI 7900HT Fast Real Time PCR System (Life Technologies). In each reaction 0.8 ng/µL cDNA and 0.2 µM primers were used. Gene expression was calculated with the ΔΔCt-method. ß-Actin was used for normalisation.

THP1-derived foam cells [5] = assay: gene expression of LXRα target genes (qPCR) in oxLDL-loaded foam cells; type: cell-based, human; settings: 10 µM
Procedure: as §2, §4

THP-1 macrophages [6] = assay: triglyceride content in macrophages; type: cell-based, human; settings: 10 µM, 48 h, vs. DMSO
Procedure: as §2, §3

THP1-derived foam cells [7] = assay: Western blot of LXRα and APOE in foam cells; type: cell-based, human; settings: Western blot densitometry
Procedure: as §2
Whole cell extracts were harvested from three biological replicates and denaturized for SDS-PAGE (NuPAGE Novex 4–12% Bis-Tris Gels). Proteins were blotted on nitrocellulose Hybond ECL membrane and incubated with strictly validated published antibodies against LXRα (Abcam, ab 41902), APOE (Abcam ab1906), and as housekeeping protein control β-Actin (Santa Cruz Biotechnology, sc-47778, C4). […] This tool measures quantitatively the optical density and provides more accurate data than simple eye-observations. […]

[8] = +DMSO, transcriptional activation vs. T09

| Structure (SMILES) | pEC50 [1] | Efficacy [1, 8] | Transcriptional activation of LXRβ [2] | total and esterified cholesterol content (THP1-derived foam cells [3]) | triglyceride levels (THP1-derived foam cells [3]) | expression of LXRα target genes (LXRα, SREBF1, ABCA1, APOE) (THP-1 macrophages [4]) | ABCA1 expression with STX4 in the presence of T09 (THP-1 macrophages [4]; presence of 1 µM T09) | expression of LXRα target genes (LXRα, SREBF1, ABCA1, APOE) (THP1-derived foam cells [5]) | triglyceride level (THP-1 macrophages [6]) | Efficacy ([1]; +200 nM T0901317 (additive)) | pEC50 ([1]; +200 nM T0901317 (additive), read-out: EC50) | pEC50 ([1]; +DMSO, LXRα reporter gene, HEK-293, 24 h, read-out: EC50) | protein expression levels of LXRα target genes (LXRα, APOE) (THP1-derived foam cells [7]) |
| --- | --- | --- | --- | --- | --- | --- | --- | --- | --- | --- | --- | --- | --- |
| CC(C)CC[C@@H](O)[C@@H](C)[C@H]1CC[C@H]2[C@@H]3CC=C4C[C@@H](O)CC[C@]4(C)[C@H]3CC[C@]12C [22-R-Hydroxycholesterol, reference compound] | 4.88 | 4% |  |  |  |  |  |  |  |  |  |  |  |
| C(=C\c1ccc(OCC2CO2)cc1)/c1ccccc1 (stereo not drawn) [STX4, 2-[[4-[(E)-styryl]phenoxy]methyl]oxirane] |  | 6% | does not activate | significant reduction | not increased | not | additive effects | potent target gene expression similar to T09 | stayed rather unchanged | 47% | 7.55 | 7.46 | increased protein expression levels |
| O=S(=O)(c1ccccc1)N(CC(F)(F)F)c1ccc(C(O)(C(F)(F)F)C(F)(F)F)cc1 [T0901317, reference compound] |  |  |  | significant reduction | increased triglyceride levels | increased expression |  |  | stayed rather unchanged |  |  |  |  |
